B1: human neutrophil elastase (h-NE) (protein)
chain: IVGGRRARPHAWPFMVSLQLRGGHFCGATLIAPNFVMSAAHCVANVNVRAVRVVLGAHNLSRREPTRQVFAVQRIFENGYDPVNLLNDIVILQLNGSATINANVQVAQLPAQGRRLGNGVQCLAMGWGLLGRNRGIASVLQELNVTVVTSLCRRSNVCTLVRGRQAGVCFGDSGSPLVCNGLIHGIASFVRGGCASGLYPDAFAPVAQFVNWIDSIIQ
B2: mouse neutrophil elastase (m-NE) (protein)
chain: IVGGRPARPHAWPFMASLQRRGGHFCGATLIARNFVMSAAHCVNGLNFRSVQVVLGAHDLRRQERTRQTFSVQRIFENGFDPSQLLNDIVIIQLNGSATINANVQVAQLPAQGQGVGDRTPCLAMGWGRLGTNRPSPSVLQELNVTVVTNMCRRRVNVCTLVPRRQAGICFGDSGGPLVCNNLVQGIDSFIRGGCGSGLYPDAFAPVAEFADWINSIIRSHNDHLLTHPKDREGRTN

Tests used:
neutrophils = assay: Neutrophil viability with free or encapsulated HCQ; type: cell-based
[1] = Lethality after intravenous administration of HCQ in mouse; type: in vivo
[2] = biological target: RCL-derived NE binding peptide (NEBP)

Row | Molecule | concentration at which neutrophil viability is affected (neutrophils) | lethality [1] | HPLC-based analysis of cleavage by NE [2]
1 | CCN(CCO)CCCC(C)Nc1ccnc2cc(Cl)ccc12 (stereo not shown) [free HCQ, hydroxychloroquine] | ≥ 10^3 ng/ml | high lethality | 
2 | B1 |  |  | such peptides are not cleaved by NE
3 | B2 |  |  | such peptides are not cleaved by NE

From patent publication US20230235022A1, “NEUTROPHIL ELASTASE BINDING PEPTIDES AND COMPOSITIONS THEREOF” (CASE WESTERN RESERVE UNIVERSITY, priority 2020, published 2023)
